Results: patent US20210284617A1, “Synthesis of (S)-2-Amino-4-Methyl-((R)-2-Methyloxirane-2-Yl)-Pentan-1-One and Pharmaceutically Acceptable Salts Thereof” (Amgen Inc., priority 2016, published 2021)
Values after ≈ are worked out from the molar mass of the structure shown.

Tests used:
[1] = Storage stability of the step 2 product, concentrated or in ACN/MTBE solution; format: physicochemical; conditions: for time stable in solution: 2-10 V of ACN or MTBE
From the text: Appropriate quenching of the Grignard process is important to ensure product quality and to eliminate racemization. A Grignard adduct impurity resulting from double-addition of the Grignard reagent was detected by LCMS at ˜2 LCAP during inverse addition of the reaction mixture to a mixture of MTBE (5 V) and 25% citric acid aqueous solution (10 V). An increase in the level of the double-addition by-product (up to 11 LCAP) was observed when quenching the reaction mixture into citric acid solution (in the absence of MTBE) with an associated decrease in product yield by >35%. The excess Grignard could react with product of step 2 that was hydrolyzed after work-up leading to the formation of the impurity. Of note, the impurities of double-addition, morpholine-adduct and dimers could not be detected by HPLC due to their relatively low response factors, but could be detected by LCMS and TLC (EtOAc/heptane 1:4, Nihydrin). Thus, it is important to carefully control the amount of Grignard reagents used and to carefully quench the reaction upon completion. Racemization of step 2 product was not observed during the course of optimization of the Grignard process or during the inverse quenching step. The concentrated product with BHT was stable at ambient temperature for one month; BHT in this sample originated from the solvent (250 ppm in stabilized THF) used in the Grignard process. The solution containing the product of step 2 in 2-10 V of ACN or MTBE was stable at room temperature or 5° C. for at least 4 days or 18 hours at 35° C., which was required to optimize the solvent switch to ACN for the step 3 epoxidation.

[2] = Solubility of compound in organic solvents (crystallization development); format: physicochemical; conditions: for solubility in organic solvents (in words): isolation/crystallization context
From the text: Importantly, the intermediate synthesis of compound 3a allowed for the development of a crystallization process capable of purging upstream impurities and eliminating the requirement for column chromatography at step 1 or 2. […] Alternatively, a ternary system of three (3) solvents, such as acetonitrile/water/acetic acid will also work to isolate compound 3a. Further, the epoxidation step 3 in scheme 3 using the Mn-y76t catalyst of the present invention followed by crystallization with IPA/water worked well to not only to purge the diasteromer impurity but also to purge upstream process impurities.

Row | SMILES | time stable in solution ([1]; 35° C.) [h] | time stable in solution ([1]; room temperature or 5° C.) | time stable as concentrated product ([1]; concentrated product with BHT, ambient temperature) | solubility in organic solvents (in words) [2] | solubility ([2]; organic solvent or mixture, n-hexane at −20° C.) [mg/mL]
1 | C=C(C)C(=O)[C@@H](CC(C)C)NC(=O)OC(C)(C)C [compound 2a, (R)-tert-butyl (2,6-dimethyl-3-oxohept-1-en-4-yl)carbamate] | 18 | at least 4 days | one month | – | –
2 | CC(C)C[C@@H](NC(=O)OC(C)(C)C)C(=O)[C@@]1(C)CO1 [compound 3a, tert-butyl ((R)-4-methyl-1-((R)-2-methyloxiran-2-yl)-1-oxopentan-2-yl)carbamate] | – | – | – | improved solubility profile | –
3 | CC(C)C[C@H](NC(=O)OC(C)(C)C)C(=O)[C@@]1(C)CO1 [compound 4a, tert-butyl ((S)-4-methyl-1-((R)-2-methyloxiran-2-yl)-1-oxopentan-2-yl)carbamate] | – | – | – | high solubility in most all organic solvents | ~34 (≈ 125 mM)
